According to ChEMBL document CHEMBL3352542, “Synthesis, biological evaluation and molecular modeling study of 2-(1,3,4-thiadiazolyl-thio and 4-methyl-thiazolyl-thio)-quinazolin-4-ones as a new class of DHFR inhibitors” (Bioorg Med Chem Lett, 2014):
Activity calls are given as the source filed them. The rule behind the calls is not given here.

Legend:
Candida albicans [1] = experiment: Antimicrobial activity against Candida albicans assessed as inhibition of visible growth after 24 hrs by disc-diffusion method; type: functional, organism-based
Staphylococcus aureus [2] = experiment: Antimicrobial activity against Staphylococcus aureus assessed as inhibition zone at 200 ug/disk after 24 hrs by disc-diffusion method; type: functional
Candida albicans [3] = experiment: Antimicrobial activity against Candida albicans assessed as inhibition zone at 200 ug/disk after 24 hrs by disc-diffusion method; type: functional
Escherichia coli [4] = experiment: Antimicrobial activity against Escherichia coli assessed as inhibition zone at 200 ug/disk after 24 hrs by disc-diffusion method; type: functional
Pseudomonas aeruginosa [5] = experiment: Antimicrobial activity against Pseudomonas aeruginosa assessed as inhibition of visible growth after 24 hrs by disc-diffusion method; type: functional, organism-based
Bacillus subtilis [6] = experiment: Antimicrobial activity against Bacillus subtilis assessed as inhibition zone at 200 ug/disk after 24 hrs by disc-diffusion method; type: functional
Escherichia coli [7] = experiment: Antimicrobial activity against Escherichia coli assessed as inhibition of visible growth after 24 hrs by disc-diffusion method; type: functional, organism-based
Pseudomonas aeruginosa [8] = experiment: Antimicrobial activity against Pseudomonas aeruginosa assessed as inhibition zone at 200 ug/disk after 24 hrs by disc-diffusion method; type: functional
Staphylococcus aureus [9] = experiment: Antimicrobial activity against Staphylococcus aureus assessed as inhibition of visible growth after 24 hrs by disc-diffusion method; type: functional, organism-based
Bacillus subtilis [10] = experiment: Antimicrobial activity against Bacillus subtilis assessed as inhibition of visible growth after 24 hrs by disc-diffusion method; type: functional, organism-based
[11] = Growth inhibition of human HCC2998 cells at 10 uM after 48 hrs; type: functional; conditions: HCC 2998, 48 h, read-out: GI
A498 = experiment: Growth inhibition of human A498 cells at 10 uM after 48 hrs; type: functional; conditions: A498, 48 h, read-out: GI
[12] = Growth inhibition of human NCI-ADR-RES cells at 10 uM after 48 hrs; type: functional; conditions: read-out: GI
[13] = Growth inhibition of human UO31 cells at 10 uM after 48 hrs; type: functional; conditions: UO-31, 48 h, read-out: GI
786-0 = experiment: Growth inhibition of human 786-0 cells at 10 uM after 48 hrs; type: functional; conditions: 786-0, 48 h, read-out: GI
CAKI-1 = experiment: Growth inhibition of human CAKI-1 cells at 10 uM after 48 hrs; type: functional; conditions: CAKI-1, 48 h, read-out: GI
[14] = Growth inhibition of human RXF393 cells at 10 uM after 48 hrs; type: functional; conditions: RXF 393, 48 h, read-out: GI
K562 = experiment: Growth inhibition of human K562 cells at 10 uM after 48 hrs; type: functional; conditions: K562, 48 h, read-out: GI
HL-60(TB) = experiment: Growth inhibition of human HL-60(TB) cells at 10 uM after 48 hrs; type: functional; conditions: HL-60, 48 h, read-out: GI
ACHN = experiment: Growth inhibition of human ACHN cells at 10 uM after 48 hrs; type: functional; conditions: read-out: GI
NCI-H460 = experiment: Growth inhibition of human NCI-H460 cells at 10 uM after 48 hrs; type: functional; conditions: NCI-H460, 48 h, read-out: GI
SNB-19 = experiment: Growth inhibition of human SNB19 cells at 10 uM after 48 hrs; type: functional; conditions: SNB-19, 48 h, read-out: GI
MDA-MB-468 = experiment: Growth inhibition of human MDA-MB-468 cells at 10 uM after 48 hrs; type: functional; conditions: MDA-MB-468, 48 h, read-out: GI
[15] = Growth inhibition of human SF295 cells at 10 uM after 48 hrs; type: functional; conditions: SF-295, 48 h, read-out: GI
TK-10 = experiment: Growth inhibition of human TK10 cells at 10 uM after 48 hrs; type: functional; conditions: TK-10, 48 h, read-out: GI
Dihydrofolate reductase = biological target: T1, Dihydrofolate reductase (Bos taurus, UniProt P00376); experiment: Inhibition of bovine liver DHFR
T1 sequence (P00376 whole entry): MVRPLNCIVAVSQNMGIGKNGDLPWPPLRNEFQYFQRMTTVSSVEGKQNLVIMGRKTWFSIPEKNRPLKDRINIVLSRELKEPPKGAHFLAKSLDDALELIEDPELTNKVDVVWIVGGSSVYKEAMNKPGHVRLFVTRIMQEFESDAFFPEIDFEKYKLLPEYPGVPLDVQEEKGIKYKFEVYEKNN

[16] = Growth inhibition of human BT549 cells at 10 uM after 48 hrs; type: functional; conditions: BT-549, 48 h, read-out: GI
[17] = Growth inhibition of human OVCAR4 cells at 10 uM after 48 hrs; type: functional; conditions: OVCAR-4, 48 h, read-out: GI
[18] = Growth inhibition of human LOXIMVI cells at 10 uM after 48 hrs; type: functional; conditions: LOX IMVI, read-out: GI
SK-MEL-5 = experiment: Growth inhibition of human SK-MEL-5 cells at 10 uM after 48 hrs; type: functional; conditions: SK-MEL-5, 48 h, read-out: GI
MDA-MB-231 = experiment: Growth inhibition of human MDA-MB-231 cells at 10 uM after 48 hrs; type: functional; conditions: MDA-MB-231, 48 h, read-out: GI
[19] = Growth inhibition of human MOLT4 cells at 10 uM after 48 hrs; type: functional; conditions: MOLT-4, 48 h, read-out: GI
NCI-H522 = experiment: Growth inhibition of human NCI-H522 cells at 10 uM after 48 hrs; type: functional; conditions: NCI-H522, 48 h, read-out: GI
KM12 = experiment: Growth inhibition of human KM12 cells at 10 uM after 48 hrs; type: functional; conditions: KM12, 48 h, read-out: GI
SW-620 = experiment: Growth inhibition of human SW620 cells at 10 uM after 48 hrs; type: functional; conditions: SW-620, 48 h, read-out: GI
[20] = Growth inhibition of human OVCAR8 cells at 10 uM after 48 hrs; type: functional; conditions: OVCAR-8, 48 h, read-out: GI
[21] = Growth inhibition of human HOP92 cells at 10 uM after 48 hrs; type: functional; conditions: HOP-92, 48 h, read-out: GI
NCI-H226 = experiment: Growth inhibition of human NCI-H226 cells at 10 uM after 48 hrs; type: functional; conditions: NCI-H226, 48 h, read-out: GI
MDA-MB-435 = experiment: Growth inhibition of human MDA-MB-435 cells at 10 uM after 48 hrs; type: functional; conditions: MDA-MB-435, 48 h, read-out: GI
A549 = experiment: Growth inhibition of human A549 cells at 10 uM after 48 hrs; type: functional; conditions: A549, 48 h, read-out: GI
T47D = experiment: Growth inhibition of human T47D cells at 10 uM after 48 hrs; type: functional; conditions: read-out: GI
MCF7 = experiment: Growth inhibition of human MCF7 cells at 10 uM after 48 hrs; type: functional; conditions: MCF7, 48 h, read-out: GI
[22] = Growth inhibition of human UACC257 cells at 10 uM after 48 hrs; type: functional; conditions: UACC-257, 48 h, read-out: GI
SN12C = experiment: Growth inhibition of human SN12C cells at 10 uM after 48 hrs; type: functional; conditions: read-out: GI
[23] = Growth inhibition of human OVCAR5 cells at 10 uM after 48 hrs; type: functional; conditions: OVCAR-5, 48 h, read-out: GI
[24] = Growth inhibition of human HCT116 cells at 10 uM after 48 hrs; type: functional; conditions: HCT-116, 48 h, read-out: GI
[25] = Growth inhibition of human HCT15 cells at 10 uM after 48 hrs; type: functional; conditions: HCT-15, 48 h, read-out: GI
[26] = Growth inhibition of human UACC62 cells at 10 uM after 48 hrs; type: functional; conditions: UACC-62, 48 h, read-out: GI
M14 = experiment: Growth inhibition of human M14 cells at 10 uM after 48 hrs; type: functional; conditions: M14, 48 h, read-out: GI
HT-29 = experiment: Growth inhibition of human HT-29 cells at 10 uM after 48 hrs; type: functional; conditions: HT-29, 48 h, read-out: GI
[27] = Growth inhibition of human PC3 cells at 10 uM after 48 hrs; type: functional; conditions: PC-3, 48 h, read-out: GI
CCRF-CEM = experiment: Growth inhibition of human CCRF-CEM cells at 10 uM after 48 hrs; type: functional; conditions: read-out: GI
[28] = Growth inhibition of human RPMI8226 cells at 10 uM after 48 hrs; type: functional; conditions: RPMI-8226, 48 h, read-out: GI
U-251 = experiment: Growth inhibition of human U251 cells at 10 uM after 48 hrs; type: functional; conditions: U-251, 48 h, read-out: GI
NCI-H23 = experiment: Growth inhibition of human NCI-H23 cells at 10 uM after 48 hrs; type: functional; conditions: NCI-H23, 48 h, read-out: GI
[29] = Growth inhibition of human Hs 578T cells at 10 uM after 48 hrs; type: functional; conditions: read-out: GI

For GENTAMICIN, the Activity (Candida albicans [1]) was “Active”, the inhibition zone (IZ) (Staphylococcus aureus [2]) was 27 mm and the inhibition zone (IZ) (Candida albicans [3]) was 19 mm. The inhibition zone (IZ) (Escherichia coli [4]) was 18 mm, the Activity (Pseudomonas aeruginosa [5]) was “Active” and the inhibition zone (IZ) (Bacillus subtilis [6]) was 25 mm. For the same compound, the Activity (Escherichia coli [7]) was “Active”, the inhibition zone (IZ) (Pseudomonas aeruginosa [8]) was 21 mm and the Activity (Staphylococcus aureus [9]) was “Active”. For the same compound, the Activity (Bacillus subtilis [10]) was “Active”.
Compound `Cc1nc(N)sc1Sc1nc2ccc(Cl)cc2c(=O)n1-c1ccc(Oc2ccccc2)cc1` has an inhibition of growth at 10 µM [11] of 26%, an inhibition of growth at 10 µM (A498) of 60.2% and an inhibition of growth at 10 µM [12] of 30.1%. The zone of inhibition at 200 µg/disc (Staphylococcus aureus [2]; read-out: IZ) was 8 mm, the inhibition of growth at 10 µM [13] was 38.3% and the zone of inhibition at 200 µg/disc (Candida albicans [3]; read-out: IZ) was 8 mm. It also gave an inhibition of growth at 10 µM (786-0) of 31.5%, an inhibition of growth at 10 µM (CAKI-1) of 26.5% and an inhibition of growth at 10 µM [14] of 13.4%. It also gave an inhibition of growth at 10 µM (K562) of 25.7%, an inhibition of growth at 10 µM (HL-60(TB)) of 40.6% and an inhibition of growth at 10 µM (ACHN) of 21.5%. The inhibition of growth at 10 µM (NCI-H460) was 18%, the inhibition of growth at 10 µM (SNB-19) was 30.7% and the inhibition of growth at 10 µM (MDA-MB-468) was 23.4%. For the same compound, the inhibition of growth at 10 µM [15] was 32.2%, the inhibition of growth at 10 µM (TK-10) was 11.1% and the IC50 (Dihydrofolate reductase) was 1000 nM. It also gave an inhibition of growth at 10 µM [16] of 36.8%, a zone of inhibition at 200 µg/disc (Escherichia coli [4]; read-out: IZ) of 8 mm and an inhibition of growth at 10 µM [17] of 59.1%. The inhibition of growth at 10 µM [18] was 24.5%, the inhibition of growth at 10 µM (SK-MEL-5) was 23.9% and the inhibition of growth at 10 µM (MDA-MB-231) was 10.7%. For the same compound, the inhibition of growth at 10 µM [19] was 55.7%, the inhibition of growth at 10 µM (NCI-H522) was 14.7% and the inhibition of growth at 10 µM (KM12) was 20.2%. The zone of inhibition at 200 µg/disc (Bacillus subtilis [6]; read-out: IZ) was 8 mm, the inhibition of growth at 10 µM (SW-620) was 33.9% and the inhibition of growth at 10 µM [20] was 24.9%. It also gave an inhibition of growth at 10 µM [21] of 25.6%, an inhibition of growth at 10 µM (NCI-H226) of 13.6% and an inhibition of growth at 10 µM (MDA-MB-435) of 11.9%. For the same compound, the inhibition of growth at 10 µM (A549) was 29.8%, the inhibition of growth at 10 µM (T47D) was 24.5% and the inhibition of growth at 10 µM (MCF7) was 12.6%. It also gave an inhibition of growth at 10 µM [22] of 24.3%, a zone of inhibition at 200 µg/disc (Pseudomonas aeruginosa [8]; read-out: IZ) of 8 mm and an inhibition of growth at 10 µM (SN12C) of 26.1%. The inhibition of growth at 10 µM [23] was 12.1%, the inhibition of growth at 10 µM [24] was 66.7% and the inhibition of growth at 10 µM [25] was 44.6%. It also gave an inhibition of growth at 10 µM [26] of 36.1%, an inhibition of growth at 10 µM (M14) of 23.4% and an inhibition of growth at 10 µM (HT-29) of 44.1%. For the same compound, the inhibition of growth at 10 µM [27] was 51.1%, the inhibition of growth at 10 µM (CCRF-CEM) was 58.5% and the inhibition of growth at 10 µM [28] was 32%. It also gave an inhibition of growth at 10 µM (U-251) of 22.8%, an inhibition of growth at 10 µM (NCI-H23) of 26% and an inhibition of growth at 10 µM [29] of 18.1%.
